Reference: US4734410A, “Lactam derivatives and their use as hypotensive agents” (Sankyo Company Limited, priority 1985, dated 1988)

Tests used:
[1] = test system: angiotensin I-induced hypertension; assay: inhibitory effect on angiotensin I-induced hypertension in vivo after oral administration to rats
Protocol: In addition, the compounds of Examples 2, 3, 7, 10 and 12 were tested in vivo. Each of these test compounds was administered orally to rats and its inhibitory effect on angiotensin I-induced hypertension was determined.

ACE = target: T1, ACE (Oryctolagus cuniculus, UniProt P12822); assay: in vitro inhibition of ACE (procedure of D. W. Cushman et al., hippurylhistidylleucine substrate); type: biochemical; conditions: ACE extracted from rabbit lungs, pH 8.3, 37° C., 30 minutes, hippuric acid at 228 nm
T1 construct: ACE extracted from rabbit lungs; from tissue; host or cells: rabbit lung
T1 sequence (P12822 34-1310): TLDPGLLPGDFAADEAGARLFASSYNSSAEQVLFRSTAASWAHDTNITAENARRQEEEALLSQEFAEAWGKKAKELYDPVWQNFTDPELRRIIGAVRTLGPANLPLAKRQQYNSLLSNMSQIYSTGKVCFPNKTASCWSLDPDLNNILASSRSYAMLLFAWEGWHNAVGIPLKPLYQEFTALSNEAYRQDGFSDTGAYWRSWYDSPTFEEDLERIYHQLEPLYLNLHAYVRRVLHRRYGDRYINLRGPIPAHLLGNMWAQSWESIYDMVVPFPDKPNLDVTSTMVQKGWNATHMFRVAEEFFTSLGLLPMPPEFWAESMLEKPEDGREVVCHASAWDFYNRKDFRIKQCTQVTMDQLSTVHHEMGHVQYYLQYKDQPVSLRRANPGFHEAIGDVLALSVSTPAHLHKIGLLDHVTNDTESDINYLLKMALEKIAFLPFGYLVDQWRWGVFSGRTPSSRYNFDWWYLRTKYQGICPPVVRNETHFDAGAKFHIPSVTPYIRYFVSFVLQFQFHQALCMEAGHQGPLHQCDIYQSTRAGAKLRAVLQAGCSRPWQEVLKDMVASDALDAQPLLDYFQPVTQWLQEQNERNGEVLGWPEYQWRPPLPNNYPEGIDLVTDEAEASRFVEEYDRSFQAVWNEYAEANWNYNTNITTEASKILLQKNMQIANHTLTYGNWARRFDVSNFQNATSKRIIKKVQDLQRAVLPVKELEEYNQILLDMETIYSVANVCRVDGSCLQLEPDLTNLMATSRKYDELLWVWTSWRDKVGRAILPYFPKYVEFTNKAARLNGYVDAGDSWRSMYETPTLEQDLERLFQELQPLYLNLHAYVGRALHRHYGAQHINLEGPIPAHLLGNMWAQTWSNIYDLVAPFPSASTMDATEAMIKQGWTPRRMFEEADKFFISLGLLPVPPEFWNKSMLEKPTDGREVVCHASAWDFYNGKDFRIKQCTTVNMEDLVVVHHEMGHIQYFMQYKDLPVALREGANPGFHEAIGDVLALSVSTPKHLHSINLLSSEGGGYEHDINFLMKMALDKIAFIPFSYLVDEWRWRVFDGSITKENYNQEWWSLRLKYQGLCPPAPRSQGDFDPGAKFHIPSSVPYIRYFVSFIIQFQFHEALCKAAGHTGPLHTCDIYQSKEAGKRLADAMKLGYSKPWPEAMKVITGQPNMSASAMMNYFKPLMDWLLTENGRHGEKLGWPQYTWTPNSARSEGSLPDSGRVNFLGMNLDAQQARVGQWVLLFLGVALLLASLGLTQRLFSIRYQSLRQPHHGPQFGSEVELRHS
Text: As noted above, the compounds of the present invention have the ability to inhibit the activity of ACE, the enzyme which converts angiotensin I to angiotensin II and also inactivates bradykinin. The physiological activity of the compounds of the invention can be evaluated by determining the concentration of the test compound required to inhibit the activity of ACE by 50% in vitro (IC50), for example by the procedure of D. W. Cushman et al. [Biochemical Pharmacology, 20, 1637 (1971)]. Specifically, solutions of ACE extracted from rabbit lungs and, as substrate, hippurylhistidylleucine, to which had been added the test compound at various concentrations, were added to a borate buffer solution containing sodium chloride, and the pH was adjusted to a value of 8.3. The enzymatic reaction was allowed to proceed at 37° C. for 30 minutes, after which time the reaction was terminated by adding 1N aqueous hydrochloric acid. The hippuric acid formed by this reaction was extracted with ethyl acetate and the solvent was then distilled from the extract. The residual hippuric acid was dissolved in water. The amount of hippuric acid in the resulting aqueous solution was determined by the absorbency to ultraviolet radiation at 228 nm. The resulting values were then plotted to form a curve indicating the relationship between the amount of hippuric acid formed and the concentration of the test compound. The IC50 value can be obtained by reading on this curve the concentration of the test compound which reduces the amount of hippuric acid formed to one half of that formed when no test compound is present.

Structure (SMILES)	inhibitory effect on angiotensin I-induced hypertension [1]	IC50 (ACE)
CCOC(=O)[C@H](CCc1ccccc1)N[C@H]1CC[C@H](c2ccccc2)CN(CC(=O)O)C1=O.Cl (single isomer, unassigned) [Example 2]	strong and lasting inhibitory effects	–
O=C(O)CN1C[C@H](c2ccccc2)CC[C@H](N[C@@H](CCc2ccccc2)C(=O)O)C1=O (single isomer, unassigned) [Test Compound B]	–	2 nM
CCCCOC(=O)[C@H](CCc1ccccc1)N[C@H]1CC[C@H](c2ccc(F)cc2)CN(CC(=O)O)C1=O.Cl [Example 10, α-{3(S)-[1(S)-Butoxycarbonyl-3-phenylpropylamino]-6(R)-(p-fluorophenyl)-2-oxoperhydroazepin-1-yl}acetic acid hydrochloride]	strong and lasting inhibitory effects	–
CCCCOC(=O)[C@H](CCc1ccccc1)N[C@H]1CC[C@H](c2ccccc2)CN(CC(=O)O)C1=O.Cl [Example 12, α-{3(S)-[1(S)-Butoxycarbonyl-3-phenylpropylamino]-2-oxo-6(R)-phenylperhydroazepin-1-yl}acetic acid hydrochloride]	strong and lasting inhibitory effects	–
CCOC(=O)[C@H](CCc1ccccc1)N[C@H]1CC[C@@H](c2ccccc2)CN(CC(=O)O)C1=O.Cl (single isomer, unassigned) [Example 3]	strong and lasting inhibitory effects	–
CCOC(=O)[C@H](CCc1ccccc1)N[C@H]1CC[C@H](c2ccc(F)cc2)CN(CC(=O)O)C1=O.Cl [Example 7, α-{3(S)-[1(S)-Ethoxycarbonyl-3-phenylpropylamino]-6(R)-(p-fluorophenyl)-2-oxoperhydroazepin-1-yl}acetic acid hydrochloride]	strong and lasting inhibitory effects	–
O=C(O)CN1C[C@@H](c2ccc(F)cc2)CC[C@H](N[C@@H](CCc2ccccc2)C(=O)O)C1=O [Test Compound C, α-{3(S)-[1(S)-carboxy-3-phenylpropylamino]-6(R)-(p-fluorophenyl)-2-oxoperhydroazepin-1-yl}acetic acid]	–	1.7 nM
O=C(O)CN1C[C@@H](c2ccccc2)CC[C@H](N[C@@H](CCc2ccccc2)C(=O)O)C1=O (single isomer, unassigned) [Test Compound A]	–	1.4 nM
